Source: publication PMC6563033, “Purification and Characterization of Antioxidant Peptides Derived from Protein Hydrolysate of the Marine Bivalve Mollusk Tergillarca granosa” (Marine Drugs, 2019)
Like-named read-outs stand apart in the source and are kept apart here. Residues, ends and D or L forms follow the SMILES beside them. No end group written: not given here.

How the values were obtained:
[1] = cited from earlier work; for Change of activity during heat treatment: heat 25–100 °C; for Change of activity during pH treatment: pH 3–11
Source text: Heat treatment is a common method of food processing and APs are helpful to lengthen the food shelf-life if they can keep their activity after heating. Peptides with large-scale pH stability can be incorporated into diverse liquid products and keep their bioactivity. Therefore, thermal and pH stability of peptides are important indexes for their application in functional products, and characterization of those properties can help to design their potential processing parameters. ATSHH from protein hydrolysate of sandfish (Arctoscopus japonicus) partially lost its DPPH radical scaven ...

[2] = cited from earlier work; for EC50 (half elimination ratio) on ABTS cation radical: APs from blue-spotted stingray
Source text: Bioactive peptides (BPs), which in general range from 2 to 20 amino acids in size, are fragments of proteins and become active when released during enzymatic hydrolysis, gastrointestinal transit, and fermentation. […] Furthermore, EC50 values of TGP3 and TGP4 were lower than those of APs from protein hydrolysates of skip ...

[3] = cited from earlier work
Source text: EC50 values of TGP3 and TGP4 were lower than those of APs from protein ...

[4] = cited from earlier work; remark: listed apart in the source
[5] = cited from earlier work; remark: listed apart in the source
Procedure: Defatted muscle of blood cockle was hydrolyzed under a two-enzyme system (Alcalase treatment for 1.5 h following Neutrase treatment for 1.5 h), and the degree of hydrolysis (DH) and yield of the resulted hydrolysate (referred to as TGH) were 19.32 ± 1.37% and 9.62 ± 0.86% (on the basis of defatted muscle), respectively. […] In addition, the EC50 values of TGP3 and TGP4 were lower than those o ...

[6] = Simulated GI digestion (pepsin + pancreatin), read out as hydroxyl radical scavenging EC50; assay type: in vitro ADME; settings: two-stage digestion: pepsin 1.0 h + pancreatin 2.0 h; judged from hydroxyl radical EC50
Procedure: First, 1.0 mL of a 1.87 mM 1,10-phenanthroline solution and 2.0 mL of the sample were added to a screw-capped tube and mixed. Then, 1.0 mL of a FeSO4·7H2O solution (1.87 mM) was added to the mixture. The reaction was initiated by adding 1.0 mL of H2O2 (0.03%, v/v). After being incubated at 37 °C for 60 min in a water bath, the absorbance of the reaction mixture was measured at 536 nm against a reagent blank. The reaction mixture without any antioxidant was used as the negative control, and a mixture without H2O2 was used as the blank. The hydroxyl radical scavenging activity was calculated using the following formula: Hydroxyl radical scavenging activity (%) = [(As − An)/(Ab − An)] × 100% (3) where As, An, and Ab are the absorbance values determined at 536 nm of the sample, the negative control, and the blank after the reaction, respectively.
Stability of TGP3 and TGP4 were measured according to the previous method with minor modifications. A temperature-controlled water bath at 25, 37, 60, 80, or 100 °C for 0.5 h was used to measure thermostability of TGP3 and TGP4. Effects of pH treatments (pH 3, 5, 7, 9, or 11) of sample solutions incubated at 25 °C for 2.5 h were assessed to analyze the pH stability of TGP3 and TGP4. […] Hydroxyl radical scavenging activities (EC50 value) of the treated TGP3 and TGP4 were measured according to the previous methods.

[7] = APs from miiuy croaker swim bladder
[8] = APs from croceine croaker scale
[9] = APs from spotless smoothhound (Mustelus griseus) muscle

WAFAPA [literature peptide from blue-spotted stingray]
Change of activity during heat treatment [1]: no significant (p > 0.05) differences
Change of activity during pH treatment [1]: no significant (p > 0.05) differences
EC50 (half elimination ratio) on ABTS cation radical [2]: 8330 µg/mL

NADFGLNGLEGLA [literature AP from giant squid]
EC50 on hydroxyl radical ([3]; AP from giant squid): 612 µg/mL

IVAGPQ [literature AP from skate cartilage]
EC50 on ABTS cation radical ([2]; APs from skate cartilage): 1290 µg/mL

GFVG [literature AP from spotless smoothhound muscle]
EC50 on ABTS cation radical ([2]; APs from spotless smoothhound muscle, no reference given): 1305.5 µg/mL

ATSHH [literature peptide from protein hydrolysate of sandfish (Arctoscopus japonicus)]
Retention of activity after pH treatment ([1]; basic (pH 10–12) and acidic (pH 2) conditions): moderate losses of activity
Retention of DPPH radical scavenging activity after heating ([1]; incubated at 50–90 °C): partially lost its DPPH radical scavenging activity

GPDGR [literature AP from skipjack tuna bone]
EC50 on ABTS cation radical ([2]; APs from skipjack tuna bone): 1070 µg/mL
EC50 on superoxide anion radical ([4]; APs from skipjack tuna bone): 1440 µg/mL

GIEWA [literature AP from miiuy croaker swim bladder]
EC50 on hydroxyl radical [3, 7]: 710 µg/mL
EC50 on DPPH radical ([5]; AP from miiuy croaker swim bladder): 780 µg/mL
EC50 on superoxide anion radical [4, 7]: 300 µg/mL

FWKVV [literature AP from miiuy croaker muscle]
EC50 on hydroxyl radical ([3]; APs from miiuy croaker muscle): 970 µg/mL
EC50 on DPPH radical ([5]; APs from miiuy croaker muscle): 850 µg/mL
EC50 on superoxide anion radical ([4]; APs from miiuy croaker muscle): 290 µg/mL

PYSFK [literature AP from grass carp skin]
EC50 on hydroxyl radical ([3]; APs from grass carp skin): 2283 µg/mL

EWPAQ [literature AP from monkfish muscle]
EC50 on hydroxyl radical ([3]; APs from monkfish muscle): 269 µg/mL

FTGMD [literature AP from miiuy croaker swim bladder]
EC50 on superoxide anion radical [4, 7]: 3040 µg/mL

FLNEFLHV [literature AP from salmon]
EC50 on ABTS cation radical ([2]; AP from salmon): 1548 µg/mL

MYPGLA [literature peptide from blue-spotted stingray]
Change of activity during heat treatment [1]: no significant (p > 0.05) differences
Change of activity during pH treatment [1]: no significant (p > 0.05) differences
EC50 (half elimination ratio) on ABTS cation radical [2]: 12880 µg/mL

PSYV [literature AP from weatherfish loach]
EC50 on hydroxyl radical ([3]; AP from weatherfish loach): 2640 µg/mL

MDLFTE [TGP-3, Met-Asp-Leu-Phe-Thr-Glu]
Susceptibility to GI digestive enzymes [6]: partially susceptible to be degradated by GI digestive enzymes

GPAGPAG [literature AP from croceine croaker scale]
EC50 on hydroxyl radical [3, 8]: 240 µg/mL
EC50 on superoxide anion radical [4, 8]: 99 µg/mL

AGPM [literature AP from skipjack tuna bone]
EC50 on ABTS cation radical ([2]; APs from skipjack tuna bone): 1480 µg/mL
EC50 on superoxide anion radical ([4]; APs from skipjack tuna bone): 1680 µg/mL

ELLI [literature AP from spotless smoothhound muscle]
EC50 on hydroxyl radical [3, 9]: 117.3 µg/mL

GFEPY [literature AP from miiuy croaker swim bladder]
EC50 on superoxide anion radical [4, 7]: 870 µg/mL

FIMGPY [literature AP from skate cartilage]
EC50 on ABTS cation radical ([2]; APs from skate cartilage): 1040 µg/mL

FPYLRH [literature AP from miiuy croaker swim bladder]
EC50 on hydroxyl radical [3, 7]: 680 µg/mL
EC50 on superoxide anion radical [4, 7]: 340 µg/mL

NFWWP [literature AP from miiuy croaker muscle]
EC50 on superoxide anion radical ([4]; APs from miiuy croaker muscle): 840 µg/mL

GAEGFIF [literature AP from skipjack tuna bone]
EC50 on hydroxyl radical ([3]; APs from skipjack tuna bone): 320 µg/mL
EC50 on DPPH radical ([5]; APs from skipjack tuna bone): 300 µg/mL

LGLNGDDVN [literature AP from conger eel]
EC50 on hydroxyl radical ([3]; AP from conger eel): 687 µg/mL

FMPLH [literature AP from miiuy croaker muscle]
EC50 on hydroxyl radical ([3]; APs from miiuy croaker muscle): 800 µg/mL
EC50 on DPPH radical ([5]; APs from miiuy croaker muscle): 480 µg/mL
EC50 on superoxide anion radical ([4]; APs from miiuy croaker muscle): 150 µg/mL

NWDMEKIWD [literature AP from skate muscle]
EC50 on DPPH radical ([5]; AP from skate muscle): 289 µg/mL

FSGLR [literature AP from miiuy croaker swim bladder]
EC50 on superoxide anion radical [4, 7]: 3350 µg/mL

YPPAK [literature AP from blue mussel]
EC50 on DPPH radical ([5]; AP from blue mussel): 2620 µg/mL

FIGP [literature AP from bluefin leatherjacket skin]
EC50 on DPPH radical ([5]; AP from bluefin leatherjacket skin): 118 µg/mL

GADIVA [literature AP from skipjack tuna bone]
EC50 on hydroxyl radical ([3]; APs from skipjack tuna bone): 250 µg/mL
EC50 on DPPH radical ([5]; APs from skipjack tuna bone): 570 µg/mL

LMGQW [literature AP from monkfish muscle]
EC50 on hydroxyl radical ([3]; APs from monkfish muscle): 40 µg/mL
EC50 on superoxide anion radical ([4]; APs from monkfish muscle): 42 µg/mL

YFLWP [literature AP from miiuy croaker muscle]
EC50 on superoxide anion radical ([4]; APs from miiuy croaker muscle): 3080 µg/mL

FLHRP [literature AP from monkfish muscle]
EC50 on hydroxyl radical ([3]; APs from monkfish muscle): 114 µg/mL
EC50 on superoxide anion radical ([4]; APs from monkfish muscle): 101 µg/mL

KFPE [literature AP from spotless smoothhound muscle]
EC50 on hydroxyl radical [3, 9]: 151 µg/mL

GFRGTIGLVG [literature AP from croceine croaker scale]
EC50 on hydroxyl radical [3, 8]: 293 µg/mL

N[C@@H](Cc1c[nH]c2ccccc12)C(=O)N1CCC[C@H]1C(=O)N1CCC[C@H]1C(=O)N[C@@H](CC(=O)O)C(=O)O [TGP-4, Trp-Pro-Pro-Asp] (H-WPPD-OH)
Susceptibility to GI digestive enzymes [6]: partially susceptible to be degradated by GI digestive enzymes

GIISH [literature AP from spotless smoothhound muscle]
EC50 on hydroxyl radical [3, 9]: 76.9 µg/mL

VGGRP [literature AP from grass carp skin]
EC50 on hydroxyl radical ([3]; APs from grass carp skin): 2055 µg/mL

HFGBPFH [literature AP from grass carp skin]
EC50 on DPPH radical ([5]; AP from grass carp skin): 200 µg/mL

GFPSG [literature AP from croceine croaker scale]
EC50 on hydroxyl radical [3, 8]: 107 µg/mL
EC50 on superoxide anion radical [4, 8]: 151 µg/mL
